In PMC8480759, “Inhibitors of histone deacetylase 6 based on a novel 3-hydroxy-isoxazole zinc binding group” (Journal of Enzyme Inhibition and Medicinal Chemistry, 2021):

Assays:
DU145 cells = assay: Anti-proliferative assay (MTT cell viability); format: cell-based, human; conditions: for effect on proliferation rate of DU145 cells: 50 µM, MTT, 24, 48, 72 h; for anti-proliferative activity at the lowest concentrations: DU145, late phases, lowest concentrations (tested 1, 5, 10, 50 µM)
Experimental: (§1) The results corroborate the inhibitory activity of 17, 23, 25 and 27 at concentrations lower than 10 µM. […] HDACs contribution to CRPC is known[20] and the possibility to arrest CRPC proliferation by acting on HDAC targets is expanding in the scientific literature[21]^,[22]. After administration of the selected compounds for 24 h at 10 µM concentration, the effect on the acetylation levels of histone H3 and α-tubulin (respectively, HDAC1 and HDAC6 targets) was investigated. […] Lastly, in the same cell line, the anti-proliferative effect was measured in dose and time dependent manner (Figure S4).
Figure S4. Cell viability assay (MTT) of the tested compounds in human prostate cancer cell lines (DU145). Cells were treated with 4 increasing concentrations (1, 5, 10, and 50 µM) of tested compounds, monitored at 24, 48, and 72 hours and tested with SAHA and Tubastatin A as reference compounds. Data are expressed as mean ± SEM. […]
1.5 Anti-proliferative assay
Cell viability was determined on DU145 cell line using Thiazolyl Blue Tetrazolium Bromide [3-(4,5-dimethylthiazol-2-yl)-2,5-diphenyltetrazolium bromide] (MTT; Sigma-Aldrich) assay after treatment with new compounds at indicated concentrations. A total of 2 × 10^4 cells/well were plated in a 96-well plate and treated, in duplicates, with new compounds at different concentrations for 24, 48, and 72 hours. Absorbance was read at a wavelength of 570 nm with a TECAN M-200 reader (Tecan, Männedorf, Switzerland).

[1] = system: acetylation levels of α-tubulin (HDAC6 target) in DU145 cells; assay: Western blot of α-tubulin acetylation in DU145 cells; format: cell-based, human; conditions: 24 h, 10 µM
Experimental: as §1
Figure S3. Western blotting analysis of the tested and reference compounds SAHA and Tubastatin A on acetylation levels of histone H3 and α-tubulin in DU145 cells. GAPDH and H4 were used as a loading control. Densitometric values were analyzed using ImageJ Software and are reported on the top of bands as the ratio between loading control and acetylated target. […]
The resulting mixtures were incubated at 37 °C for 45min , after which 25 µL of 2X HDAC developer were added. Following incubation at RT for 15 min, fluorescence intensity was measured using a microplate reader (GloMax Discover System, Promega) at 365nm excitation and […] emission wavelengths.
IC50 values were calculated using the GraphPad Prism 6 program based on a log(inhibitor) vs response (variable slope) sigmoidal equation. […]

## Oc1cc(-c2ccc3c(c2)OCO3)on1 [Compound 25]
DU145 cells
  effect on proliferation rate of DU145 cells: reduced the proliferation rate
  anti-proliferative activity at the lowest concentrations: exerted anti-proliferative activity
[1]
  effect on acetylation of α-tubulin: increased

## Oc1cc(-c2ccc(NCc3ccccc3)cc2)on1 [Compound 23]
DU145 cells
  effect on proliferation rate of DU145 cells: reduced the proliferation rate
  anti-proliferative activity at the lowest concentrations: exerted anti-proliferative activity
[1]
  effect on acetylation of α-tubulin: increased
